Earlier results as cited in paper PMC2615486 (Chemistry & biology, 2008).

Columns and labels:
avidin = details: ref Green, N.M. 1970
[1] = ref Hyre, D.E., Le Trong, I., et al. 2006

| Molecule | dissociation constant for avidin, weaker than that of biotin (avidin) | association rate for biotin [1] |
| --- | --- | --- |
| C[C@@H]1NC(=O)N[C@@H]1CCCCCC(=O)O [desthiobiotin] | 10^2–10^4 fold |  |
| streptavidin: wild-type streptavidin as described in the literature |  | ~ 1 × 10^8 M^−1s^−1 |
